{"source": "patent US20100227841A1", "about": "“Patient populations and treatment methods” (Harbor BioSciencs, Inc., priority 2008, published 2010)", "key": {"[1]": {"tested_on": "toll-like receptor 4 (TLR4) signaling", "experiment": "LPS-induced proinflammatory signaling in macrophages (Western blot, qNPA array)", "format": "cell-based, mouse", "procedure": "Methods. LPS and recombinant TNFα were obtained from Sigma. Anti-SREBP2 was obtained from Abcam (Cambridge, Mass.). Other primary antibodies were purchased from Cell Signaling Technology (Danvers, Mass.) unless otherwise indicated. Murine primary macrophages were elicited by intraperitoneal injection of thioglycollate (3 mL/mouse) in C57BL/6J mice. Macrophages were obtained from intraperitoneal lavage and washed twice. Cells were cultured in RPMI supplemented with 10% fetal bovine serum (FBS) for 3 days and then starved in RPMI supplemented with 0.5% FBS for overnight before the treatment. RAW 264.7 cells and 3T3-L1 cells were cultured essentially as described elsewhere (T. Yoshizaki, et al. Molecular and Cellular Biology, 29:1363-1374, 2009).\nGene expression analyses used total RNA extracted from tissue with Purelink total RNA purification system (Invitrogen) following the manufacturer's protocol. Total RNA (2 μg) was reverse-transcribed using iScript cDNA Synthesis Kit (Bio-Rad Laboratories, Hercules, Calif.). Primer sequences used in the PCR reactions were chosen based on the sequences available in GenBank. Primer sequences are available upon request. PCR was carried out using iTaq SYBR Green supermix (Bio-Rad Laboratories, Hercules, Calif.) on an MJ Research Chromo4 Real Time PCR system (Bio-Rad Laboratories BV, Hercules, Calif.). […] For Quantitative Nuclease Protection Assay (qNPA), cells were lysed in lysis buffer after various treatments. The qNPA ArrayPlate assays were performed by High Throughput Genomics, Inc.\nFor Western blots, cells were serum starved and pretreated with DMSO or 17α-ethynylandrost-5-ene-3β,7β,17β-triol (100 nM) for overnight before LPS (100 ng/ml) or TNFα (10 ng/ml) stimulation for the indicated times, and then were lysed in radioimmunoprecipitation buffer containing protease inhibitor cocktail (Roche) and phosphatase inhibitor cocktail (Sigma). Total cell lysates were separated by 10% SDS-PAGE. The blots were incubated first with blocking buffer (Tris-buffered saline containing 0.05% Tween 20 and 5.5% nonfat milk) followed by primary antibodies in blocking buffer or Tris-buffered saline containing 2% BSA. The bound antibodies were detected by horseradish peroxidase-conjugated secondary antibodies (1:4000, v/v) in blocking buffer and visualized by enhanced chemiluminescence."}, "[2]": {"tested_on": "Zucker Diabetic Fatty (ZDF) rats", "experiment": "Zucker Diabetic Fatty (ZDF) rat study (glucose, clamp, adipose histology, lipid profiles)", "format": "in vivo", "procedure": "The study was staggered into 6 cohorts conducted on different days. Forty-two male Zucker Diabetic Fatty (ZDF) rats and six Zucker Fatty rats at 7-week of age were obtained from Charles River laboratories (Wilmington, Mass.). The rats were housed individually in polycarbonate cages in a temperature-controlled room on a 12 h: 12 h light: dark cycle with the lights on at 0600 h. Rats were fed ad libitum except during the experiments. After one week of acclimation to environmental conditions, the ZDF rats began daily oral treatment for 32 to 35 days with vehicle (n=18), 100 mg/kg/day 17α-ethynylandrost-5-ene-3β,7β,17β-triol (n=15), or 10 mg/kg/day rosiglitazone (n=9).\nGlucose levels were measured using a One-Touch glucometer (Lifescan). Extra serum samples were collected for free fatty acid (FFA), free glycerol, pyruvate, and lactate measurements. Glucose, insulin and pyruvate tolerance tests were performed on 6 hr fasted rats. For GTT, animals were orally gavaged with glucose (1 g/kg), whereas for ITT, 0.35 units/kg insulin (Novolin R, Novo-Nordisk) was injected intraperitoneally. Blood samples were taken at basal and 15, 30, 60, 90 and 120 min after injection. For the pyruvate tolerance test (PTT), 1 g/kg of pyruvate was used.\nDual jugular venous cannulae and one carotid arterial cannula were implanted in rats. The rats were allowed to recover for 4 to 5 days before clamp procedure. The hyperinsulinemic euglycemic clamp experiments began with a priming injection (7.5 μCi/0.2 ml) and constant infusion (0.25 μCi/min) of D-[3-^3H] glucose (Du Pont-NEN, Boston, Mass.). After 60 min of tracer equilibration and basal sampling at t=−10 and 0 min, glucose (50% dextrose, variable infusion; Abbott) and tracer (0.25 μCi/min) plus insulin ([…]) were infused into the jugular vein. Small blood samples were drawn at 10-min intervals and immediately analyzed for glucose to maintain the integrity of the glucose clamp throughout the duration of the experiment. Blood samples were taken at t=−60 (start of experiment), −10, 0 (basal), 110, and 120 (end of experiment) min to determine glucose-specific activity and insulin, and free fatty acid (FFA). To ensure accuracy, basal and terminal sampling was performed twice at 10-min intervals. The achievement of steady-state conditions (100 mg/dl±5 mg/dl) was confirmed at the end of the clamp by measuring blood glucose every 10 min and ensuring that steady state for glucose infusion and plasma glucose levels were maintained for a minimum of 20 min. All blood samples were immediately centrifuged, and plasma was stored at −80° C. for subsequent analysis.\nFollowing a 3-day recovery after clamp, rats were fasted 6 hours and euthanized. Tissues were harvested at basal state or acute insulin-stimulated state (5 U/kg). Insulin levels were analyzed by ELISA assay (Alpco Diagnostics). FFA levels were measured by enzymatic assay (Wako Diagnostics). Glycerol levels were measured using an assay kit from Sigma. Lactate and pyruvate assay kits were obtained from Biovision. TNFα and IL-1βwere measured by ELISA assays (Biosource).\nImmunohistochemistry and quantification of crown-like structure (CLS) were done. These studies were conducted using paraffin-embedded adipose (epididymal) tissue sections from the rats incubated with MAC-2 antibody (Abcam) at a 1:100 dilution overnight at 4° C. Subsequently, biotinylated anti-rat secondary antibody (BD Bioscience) was used at 1:100 dilution, followed by 1:500 HRP-Streptavidin (Jackson ImmunoResearch) and development in substrate chromogen. Slides were counterstained with Mayer's and mounted with Vectashield mounting media with DAPI (Vector). Both bright field (MAC-2) and fluorescent photographs (DAPI) were taken of 3 representative fields per slide in a blinded fashion using a fluorescent microscope (10× objective).\nGene expression analyses used total RNA extracted from tissue with Purelink total RNA purification system (Invitrogen) following the manufacturer's protocol."}, "[3]": {"conditions": "pretreatment 100 nM overnight, LPS 100 ng/ml, p<0.05"}, "[4]": {"conditions": "ZDF rats, 100 mg/kg/d, throughout the study, one week sufficient"}, "[5]": {"conditions": "euglycemic-hyperinsulinemic clamp, triol 100 mg/kg/d, rosiglitazone 10 mg/kg/d (more robust)"}}, "data": [{"smiles": "C#C[C@]1(O)CC[C@H]2[C@@H]3[C@@H](O)C=C4C[C@@H](O)CC[C@]4(C)[C@H]3CC[C@@]21C", "note": "[17α-ethynylandrost-5-ene-3β,7β,17β-triol]", "values": [{"measurement": "LPS-induced activation of ERK", "setting": "[1]; [3]", "value": "partially, but significantly, blocked"}, {"measurement": "LPS-induced activation of IKK", "setting": "[1]; [3]", "value": "partially, but significantly, blocked"}, {"measurement": "LPS-induced activation of JNK", "setting": "[1]; [3]", "value": "partially, but significantly, blocked"}, {"measurement": "LPS-induced activation of p38", "setting": "[1]; [3]", "value": "partially, but significantly, blocked"}, {"measurement": "IκB phosphorylation and degradation", "setting": "[1]; pretreatment 100 nM, LPS", "value": "not influenced"}, {"measurement": "NFκB phosphorylation", "setting": "[1]; pretreatment 100 nM, LPS", "value": "reduced"}, {"measurement": "LPS-induced transcription of Cxcl1", "setting": "[1]; qNPA array", "value": "significantly reduced"}, {"measurement": "LPS-induced transcription of Cxcl10", "setting": "[1]; qNPA array", "value": "significantly reduced"}, {"measurement": "LPS-induced transcription of IL-1β", "setting": "[1]; qNPA array", "value": "significantly reduced"}, {"measurement": "LPS-induced transcription of IL-6", "setting": "[1]; qNPA array", "value": "significantly reduced"}, {"measurement": "LPS-induced transcription of IL-12", "setting": "[1]; qNPA array", "value": "significantly reduced"}, {"measurement": "LPS-induced transcription of Nos2", "setting": "[1]; qNPA array", "value": "significantly reduced"}, {"measurement": "LPS-induced transcription of TNFα", "setting": "[1]; qNPA array", "value": "significantly reduced"}, {"measurement": "intracellular triacylglycerol (TAG) content in livers", "setting": "[2]; ZDF rats", "value": "marked decrease"}, {"measurement": "decrease in serum cholesteryl esters", "setting": "[2]; ZDF rats, 100 mg/kg/d", "value": 59, "unit": "%"}, {"measurement": "decrease in serum total cholesterol levels", "setting": "[2]; ZDF rats, 100 mg/kg/d", "value": 25, "unit": "%"}, {"measurement": "gross pathology of the kidneys due to diabetes", "setting": "[2]; ZDF rats, 100 mg/kg/d", "value": "greatly ameliorated"}, {"measurement": "level of free cholesterol in epididymal white adipose tissue (WAT)", "setting": "[2]; ZDF rats, 100 mg/kg/d", "value": "reduced"}, {"measurement": "other major lipid classes in WAT", "setting": "[2]; ZDF rats, 100 mg/kg/d", "value": "not significantly altered"}, {"measurement": "reduction of hepatic cholesteryl ester levels", "setting": "[2]; ZDF rats, 100 mg/kg/d", "value": 73, "unit": "%"}, {"measurement": "reduction of total cholesterol content in the liver", "setting": "[2]; ZDF rats, 100 mg/kg/d", "value": 15, "unit": "%"}, {"measurement": "serum free cholesterol levels", "setting": "[2]; ZDF rats, 100 mg/kg/d", "value": "increase"}, {"measurement": "plasma insulin levels", "setting": "[2]; ZDF rats, 100 mg/kg/d, one week of treatment", "value": "normalize"}, {"measurement": "fasting glucose levels", "setting": "[2]; [4]", "value": "completely normalized"}, {"measurement": "fed glucose levels", "setting": "[2]; [4]", "value": "completely normalized"}, {"measurement": "adipose tissue macrophage (ATM) content, Mac-2 staining", "setting": "[2]; ZDF rats, epididymal adipose tissue sections", "value": "marked reduction"}, {"measurement": "HMG CoA reductase expression", "setting": "[2]; ZDF rats, gene expression", "value": "increased"}, {"measurement": "low density lipoprotein receptor (LDLR) expression", "setting": "[2]; ZDF rats, gene expression", "value": "increased"}, {"measurement": "MCP-1 in adipose tissue", "setting": "[2]; ZDF rats, p<0.05", "value": "decrease"}, {"measurement": "TNFα in adipose tissue", "setting": "[2]; ZDF rats, p<0.05", "value": "decrease"}, {"measurement": "Basal rates of hepatic glucose production (HGP)", "setting": "[2]; clamp, triol 100 mg/kg/d, rosiglitazone 10 mg/kg/d", "value": "equally reduced"}, {"measurement": "glucose infusion rate", "setting": "[2]; [5]", "value": "increase"}, {"measurement": "insulin-stimulated glucose disposal", "setting": "[2]; [5]", "value": "increase"}]}]}
